This is an account of results in PubChem BioAssay AID463204 (Broad Institute, 2010).

The source made the active and inactive calls.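 Rule for the calls: active = AC50 no more than ten times the top concentration tested, that is within one log above it; inconclusive = flat curve fit with activity between 30% and 70%, or invalid poor fit; inactive = AC50 beyond ten times the top tested dose.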 Some results are limits rather than exact numbers.

This test concerns S. cerevisiae Mot1-301 ts growth rescue, BacTiter-Glo ATP luminescence. The test is described as follows: growth rescue of Mot1-301 ts yeast, confirmation, SUMOylation pathway inhibitor project, whole organism, S. cerevisiae, Mot1-301 ts mutant, luminescence, dose retest (AID 463204).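 Note: growth at restrictive 38.5 degrees C of Mot1-301 OY566 strain; actives raise luminescence by restoring growth of the ts mutant at high temperature.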
Take `CC1(C)CCc2cc(CN3CCN(c4ccccn4)CC3)ccc2O1`: the AC50 – broadly, the concentration giving half of the maximal activity seen – is > 42 µM (inactive).

As for `O=C(Nc1cc(F)ccc1F)C1CCCO1` (stereo not given), the AC50 is > 42 µM (inactive).

Regarding `COCC(=O)NNC(=O)c1ccccc1OC`, the AC50 is > 42 µM (inactive).

As for `O=C(NCCc1cnccn1)C1CCC(=O)N(Cc2ccc(Cl)cc2)C1` (stereo not given), the AC50 was > 42 µM (inactive).

`C/C(CC1(O)C(=O)Nc2ccccc21)=N\O` (stereo not given): the AC50 is > 42 µM (inactive).

For `O=c1c2ccccc2ncn1Cc1ccc2c(c1)OCO2`, the AC50 was > 42 µM (inactive).

Consider `CC(=O)c1ccc(Oc2cc(C)nc(N3CCOCC3)n2)cc1`, for which the AC50 is > 42 µM (inactive).

In the case of `COc1ccc(C2=NOC(Cn3nc(C(=O)NCc4cccs4)cc3-c3ccccc3)C2)cc1` (stereo not given), the AC50 is > 42 µM (inactive).

`C=CCNc1nnc(SC2CC(=O)N(c3ccc(OCCC)cc3)C2=O)s1` (stereo not given): the AC50 was 4.49 µM.

As to `CCCCCNC(=O)c1ccc2c(=O)n(CC3CCCO3)c(=O)[nH]c2c1` (stereo not given), the AC50 was > 42 µM (inactive).

Consider `NC1=NC2(CCCC2)N=C(Nc2ccccc2)N1`, for which the AC50 is > 42 µM (inactive).

With `Cc1ccc(-c2csc3ncn(CC(=O)N4CCOCC4)c(=O)c23)cc1`, the AC50 is > 42 µM (inactive).

Consider `CC1CCC(C(C)C)C(OC(=O)COC(=O)c2cccn2C)C1` (stereo not given), for which the AC50 was > 42 µM (inactive).

As to `CSc1cccc(NC(=S)N2CCCN(Cc3ccccc3F)C2)c1`, the AC50 is > 42 µM (inactive).

Take `CCN1CCCC1CN(Cc1cc2ccc(C)cc2[nH]c1=O)C(=S)Nc1ccc(OC)cc1OC` (stereo not given): the AC50 was > 42 µM (inactive).

Regarding `CCOc1ccc2nc(CN3CCN(Cc4ccccc4OCC)C(CCO)C3)ccc2c1` (stereo not given), the AC50 was > 42 µM (inactive).

Turning to `CN(c1cccnc1)c1ncnc2[nH]ncc12`, the AC50 is > 42 µM (inactive).

Consider `O=C(CSc1nc(-c2ccccc2)cc(=O)[nH]1)Nc1ccc(Br)cc1`, for which the AC50 was > 42 µM (inactive).

Take `FC(F)(F)c1nc2ccccc2n2c(-c3ccc(Cl)cc3Cl)nnc12`: the AC50 was > 42 µM (inactive).

`O=S(=O)(Nc1cccc2cn[nH]c12)c1ccc(F)cc1`: the AC50 is > 42 µM (inactive).

In the case of `Cc1ccc(-c2noc(C3CCCN(S(=O)(=O)c4ccc5ccccc5c4)C3)n2)o1` (stereo not given), the AC50 was > 42 µM (inactive).

Turning to `O=C(NCC1CCN(Cc2ccccc2Cl)CC1)Nc1ccccc1F`, the AC50 is > 42 µM (inactive).

Turning to `CC1CCCC(C)N1CCCNC(=O)c1csc2c1CCCCC2` (stereo not given), the AC50 is > 42 µM (inactive).

`Cc1ccc(NC(=O)NNC(=O)Cn2nc(-c3ccccc3)c(-c3ccccc3)c(C#N)c2=O)cc1`: the AC50 is > 42 µM (inactive).

Regarding `CCN(CC1COc2ccccc2O1)C(=S)NCCCN(C)C` (stereo not given), the AC50 is > 42 µM (inactive).

On to `COc1ccc(OC(=O)c2ccc(Cl)cc2)c(C(C)=O)c1`, for which the AC50 is > 42 µM (inactive).

With `Cc1c(OC(C)C(=O)N2C[C@H]3C[C@@H](C2)c2cccc(=O)n2C3)ccc2c3c(c(=O)oc12)CCCC3` (stereo not given in full), the AC50 is > 42 µM (inactive).

With `COc1ccc(N2CC(C(=O)N3CCc4ccccc43)CC2=O)cc1` (stereo not given), the AC50 is > 42 µM (inactive).

Regarding `CC1(C)CC(=O)C(C(=O)c2ccccc2)C(=O)C1Cl` (stereo not given), the AC50 is > 42 µM (inactive).

On to `O=C(CCc1ccccc1)NNC(=O)c1ccc(Br)cc1`, for which the AC50 was > 42 µM (inactive).

As for `O=C(Nc1cnn(Cc2ccc(Cl)cc2)c1)c1ccc([N+](=O)[O-])cc1`, the AC50 is > 42 µM (inactive).

As for `Cc1cc(C#Cc2c(-c3ccccc3)n(C)c3ccccc23)ccc1F`, the AC50 is > 42 µM (inactive).

Turning to `O=C(CCC(F)(F)F)N1CCCC(CO)(CCc2ccccc2)C1` (stereo not given), the AC50 was > 42 µM (inactive).

For `COC(=O)[C@@H]1C[C@@H]2CC[C@@H](O)C[C@@H]2N1Cc1ccc(N2CCN(C)CC2)cc1`, the AC50 was > 42 µM (inactive).

As for `O=C(CNC(=O)c1ccco1)OCC(=O)c1cccc2ccccc12`, the AC50 was > 42 µM (inactive).
